Measured values as given in US9586931B2 (Merck Sharp & Dohme Corp., priority 2012, dated 2017).
Values joined by “and” are separate entries in the source; they are usually repeats but may differ in a detail not shown here. Equal values may be shown once.

The compounds below were run against T1, recombinant human GST-Syk (Homo sapiens, UniProt P43405) (assay: Homogeneous Time-Resolved Fluorescence (HTRF) assay for the recombinant human Syk enzyme). Conditions: recombinant human GST-Syk 5 pM, ATP 25 μM, 10-dose titration 10 μM to 0.508 nM; read-out: rhSYK Activity IC50.
T1 construct: purchased Carna Biosciences 08-176
Assay type: biochemical
Outline: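 GST-hSyk fusion protein phosphorylated a peptide for 45 min at room temperature. The reaction was quenched with 2 nM Eu-anti-phosphotyrosine antibody and 70 nM SA-APC in 15 mM Tris pH 7.5, 40 mM EDTA, 0.01% Tween 20. The HTRF signal was read after 30 min.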

| Compound | IC50 |
| --- | --- |
| COC(=O)C1CCC(O)(Cn2cc(-c3cc(C)cc(Nc4cc(C(F)(F)F)ccn4)n3)nn2)CC1(C)C (centres unmarked) [Example 4.12, methyl 4-hydroxy-2,2-dimethyl-4-{[4-(4-methyl-6-{[4-(trifluoromethyl)pyridin-2-yl]amino}pyridin-2-yl)-1H-1,2,3-triazol-1-yl]methyl}cyclohexanecarboxylate] | 145 nM |
| Cc1cc(Nc2nccc(C(F)(F)F)n2)cc(-c2cn(CCC(N)=O)nn2)c1 [Example 5.75, 3-[4-(3-methyl-5-{[4-(trifluoromethyl)pyrimidin-2-yl]amino}phenyl)-1H-1,2,3-triazol-1-yl]propanamide] | 31.6 nM |
| COCC(C)(C)NC(=O)Cn1cc(-c2cc(C)cc(Nc3nccc(C(F)(F)F)n3)c2)nn1 [Example 5.67, N-(2-methoxy-1,1-dimethylethyl)-2-[4-(3-methyl-5-{[4-(trifluoromethyl)pyrimidin-2-yl]amino}phenyl)-1H-1,2,3-triazol-1-yl]acetamide] | 296 nM |
| Cc1cc(Nc2nccc(C(F)F)n2)cc(-c2cn(CC(C)(O)CO)nn2)c1 (single isomer, unassigned) [Example 21.8, 3-[4-(3-{[4-(difluoromethyl)pyrimidin-2-yl]amino}-5-methylphenyl)-1H-1,2,3-triazol-1-yl]-2-methylpropane-1,2-diol] | 13.1 nM |
| Cc1cc(Nc2cc(C(F)(F)F)ccn2)nc(-c2cn(C(C)C(=O)NCC3(c4ccc(F)cc4)CCOCC3)nn2)c1 (centres unmarked) [Example 1.49, N-{[4-(4-fluorophenyl)tetrahydro-2H-pyran-4-yl]methyl}-2-[4-(4-methyl-6-{[4-(trifluoromethyl)pyridin-2-yl]amino}pyridin-2-yl)-1H-1,2,3-triazol-1-yl]propanamide] | 404 nM |
| Cc1cc(Nc2cc(C(F)(F)F)ccn2)nc(-c2cn(C3CCC(C(=O)O)C(C)(C)C3)nn2)c1 (single isomer, unassigned) [Example 9.1, (R or S) 2,2-Dimethyl-4-[4-(4-methyl-6-{[4-(trifluoromethyl)pyridin-2-yl]amino}pyridin-2-yl)-1 H-1,2,3-triazol-1-yl]cyclohexanecarboxylic acid] | 3.7 nM |
| COc1cc2c(cc1OC)CN(C(=O)C(C)n1cc(-c3cc(C)cc(Nc4cc(C(F)(F)F)ccn4)n3)nn1)C(C)C2 (centres unmarked) [Example 1.34, 6-{1-[2-(6,7-dimethoxy-3-methyl-3,4-dihydroisoquinolin-2(1H)-yl)-1-methyl-2-oxoethyl]-1H-1,2,3-triazol-4-yl}-4-methyl-N-[4-(trifluoromethyl)pyridin-2-yl]pyridin-2-amine] | 2700 nM |
| Cc1cc(Nc2cc(C(C)(C)C)ccn2)nc(-c2cn(C(C)c3ccc(C(=O)O)cc3)nn2)c1 (centres unmarked) [Example 2.12, 4-[1-(4-{6-[(4-tert-butylpyridin-2-yl)amino]-4-methylpyridin-2-yl}-1H-1,2,3-triazol-1-yl)ethyl]benzoic acid] | 5.5 nM |
| Cc1cc(Nc2cc(C(F)(F)F)ccn2)nc(-c2cn(C(C)C(=O)N3CCc4[nH]c5c(Cl)cccc5c4C3)nn2)c1 (centres unmarked) [Example 1.41, 6-{1-[2-(6-chloro-1,3,4,5-tetrahydro-2H-pyrido[4,3-b]indol-2-yl)-1-methyl-2-oxoethyl]-1H-1,2,3-triazol-4-yl}-4-methyl-N-[4-(trifluoromethyl)pyridin-2-yl]pyridin-2-amine] | 131 nM |
| Cc1cc(Nc2cc(C(F)(F)F)ccn2)nc(-c2cn([C@H](C)C(=O)NCC(=O)O)nn2)c1 [Example 3.14, N-{(2R)-2-[4-(4-methyl-6-{[4-(trifluoromethyl)pyridin-2-yl]amino}pyridin-2-yl)-1H-1,2,3-triazol-1-yl]propanoyl}glycine] | 9.6 nM |
| Cc1cc(Nc2cc(C(F)(F)F)ccn2)nc(-c2cn(C3CCC(C(=O)O)CC3)nn2)c1 (mixture of isomers) [Example 5.46, 4-[4-(4-methyl-6-{[4-(trifluoromethyl)pyridin-2-yl]amino}pyridin-2-yl)-1H-1,2,3-triazol-1-yl]cyclohexane-carboxylic acid] | 4.9 nM |
| Cc1cc(Nc2nccc(C(F)F)n2)cc(-c2cn(CC3OC(=O)NC3C)nn2)c1 (single isomer, unassigned) [Example 7.7, 5-((4-(3-((4-(difluoromethyl)pyrimidin-2-yl)amino)-5-methylphenyl)-1H-1,2,3-triazol-1-yl)methyl)-4-methyloxazolidin-2-one] | 9.9 nM |
| Cc1cc(Nc2ncc(F)c(C(F)F)n2)cc(-c2cn(CC(C)(O)C(C)(C)O)nn2)c1 (centres unmarked) [Example 21.34, 1-[4-(3-{[4-(difluoromethyl)-5-fluoropyrimidin-2-yl]amino}-5-methylphenyl)-1H-1,2,3-triazol-1-yl]-2,3-dimethylbutane-2,3-diol] | 18.2 nM |
| Cc1cc(Nc2nccc(C(F)(F)F)n2)cc(-c2cn(CC(=O)N3[C@H](C)COC[C@@H]3C)nn2)c1 [Example 5.65, N-[3-(1-{2-[(cis)-3,5-dimethylmorpholin-4-yl]-2-oxoethyl}-1H-1,2,3-triazol-4-yl)-5-methylphenyl]-4-(trifluoromethyl)pyrimidin-2-amine] | 122 nM |
| Cc1cc(Nc2nccc(C(F)F)n2)cc(-c2cn(C3CCCCC3O)nn2)c1 (centres unmarked) [Example 4.35, 2-[4-(3-{[4-(difluoromethyl)pyrimidin-2-yl]amino}-5-methylphenyl)-1H-1,2,3-triazol-1-yl]cyclohexanol] | 11 nM |
| Cc1cc(Nc2cc(C(F)(F)F)ccn2)nc(-c2cn(C(C)C(=O)N3CCc4cc(O)c(O)cc4C(c4ccccc4)C3)nn2)c1 (centres unmarked) [Example 1.54, 3-{2-[4-(4-methyl-6-{[4-(trifluoromethyl)pyridin-2-yl]amino}pyridin-2-yl)-1H-1,2,3-triazol-1-yl]propanoyl}-1-phenyl-2,3,4,5-tetrahydro-1H-3-benzazepine-7,8-diol] | 134 nM |
| Cc1cc(Nc2nccc(C(F)(F)F)n2)cc(-c2cn(CC(C)(C)O)nn2)c1 [Example 5.55, 2-methyl-1-[4-(3-methyl-5-{[4-(trifluoromethyl)pyrimidin-2-yl]amino}phenyl)-1H-1,2,3-triazol-1-yl]propan-2-ol] | 23.5 nM |

Next, values leading:

| IC50 | Compound |
| --- | --- |
| 66.4 nM | COC(=O)[C@@H](C)Cn1cc(-c2cc(C)cc(Nc3cc(C(F)(F)F)ccn3)n2)nn1 [Example 5.86, methyl (2S)-2-methyl-3-[4-(4-methyl-6-{[4-(trifluoromethyl)pyridin-2-yl]amino}pyridin-2-yl)-1H-1,2,3-triazol-1-yl]propanoate] |
| 12.1 nM | Cc1cc(Nc2cc(C(F)(F)F)ccn2)nc(-c2cn(CC(O)C(C)(C)C)nn2)c1 (centres unmarked) [Example 4.25, 3,3-dimethyl-1-[4-(4-methyl-6-{[4-(trifluoromethyl)pyridin-2-yl]amino}pyridin-2-yl)-1H-1,2,3-triazol-1-yl]butan-2-ol] |
| 8.4 nM | Cc1cc(Nc2cc(C(F)F)ccn2)nc(-c2cn(CC3(C)CNC(=O)O3)nn2)c1 (single isomer, unassigned) [Example 7.9, 5-((4-(6-((4-(difluoromethyl)pyridin-2-yl)amino)-4-methylpyridin-2-yl)-1H-1,2,3-triazol-1-yl)methyl)-5-methyloxazolidin-2-one] |
| 4.1 nM and 3.18 nM | Cc1cc(Nc2cc(C(F)(F)F)ccn2)nc(-c2cn(C[C@H](O)CC#N)nn2)c1 [Example 5.44, (3R)-3-hydroxy-4-[4-(4-methyl-6-{[4-(trifluoromethyl)pyridin-2-yl]amino}pyridin-2-yl)-1H-1,2,3-thiazol-1-yl]butanenitrile] |
| 18 nM | Cc1cc(Nc2cc(C(F)F)ccn2)nc(-c2cn(CC3OC(=O)NC3C)nn2)c1 (single isomer, unassigned) [Example 7.44, 5-{[4-(6-{[4-(difluoromethyl)pyridin-2-yl]amino}-4-methylpyridin-2-yl)-1H-1,2,3-triazol-1-yl]methyl}-4-methyl-1,3-oxazolidin-2-one] |
| 8.6 nM | Cc1cc(Nc2cc(C(F)F)ccn2)nc(-c2cn(CC3CNC(=O)C3)nn2)c1 (single isomer, unassigned) [Example 24.2, 4-((4-(6-((4-(difluoromethyl)pyridin-2-yl)amino)-4-methylpyridin-2-yl)-1H-1,2,3-triazol-1-yl)methyl)pyrrolidin-2-one] |
| 2.7 nM | Cc1cc(Nc2cc(C(F)F)ccn2)nc(-c2cn(C(C)C(C)(O)CO)nn2)c1 (single isomer, unassigned) [Example 30.5, 3-[4-(6-{[4-(difluoromethyl)pyridin-2-yl]amino}-4-methylpyridin-2-yl)-1H-1,2,3-triazol-1-yl]-2-methylbutane-1,2-diol] |
| 13.5 nM | Cc1cc(Nc2cc(C(F)F)ccn2)nc(-c2cn(CC(C)(O)C(C)(C)O)nn2)c1 (centres unmarked) [Example 21.9, 1-[4-(6-{[4-(difluoromethyl)pyridin-2-yl]amino}-4-methylpyridin-2-yl)-1H-1,2,3-triazol-1-yl]-2,3-dimethylbutane-2,3-diol] |
| 47.1 nM | Cc1cc(Nc2cc(C(F)(F)F)ccn2)nc(-c2cn(CCS(C)(=O)=O)nn2)c1 [Example 5.96, 4-methyl-6-{1-[2-(methylsulfonyl)ethyl]-1H-1,2,3-triazol-4-yl}-N-[4-(trifluoromethyl)pyridin-2-yl]pyridin-2-amine] |
| 154 nM | Cc1ccnc(Nc2cc(C)cc(-c3cn(CCO)nn3)n2)c1 [Example 5.18, 2-(4-{4-methyl-6-[(4-methylpyridin-2-yl)amino]pyridin-2-yl}-1H-1,2,3-triazol-1-yl)ethanol] |
| 12.3 nM | Cc1cc(Nc2cc(C(F)F)ccn2)nc(-c2cn(CC3CNC(=O)C3)nn2)c1 (single isomer, unassigned) [Example 24.1, 4-((4-(6-((4-(difluoromethyl)pyridin-2-yl)amino)-4-methylpyridin-2-yl)-1H-1,2,3-triazol-1-yl)methyl)pyrrolidin-2-one] |
| 1.2 nM | Cc1cc(Nc2cc(C(F)F)ccn2)nc(-c2cn(C(C)C(C)(O)CO)nn2)c1 (single isomer, unassigned) [Example 30.8, 3-[4-(6-{[4-(difluoromethyl)pyridin-2-yl]amino}-4-methylpyridin-2-yl)-1H-1,2,3-triazol-1-yl]-2-methylbutane-1,2-diol] |
